Holding throughout (type): cell-based
The test system of assay [1] is P. falciparum (highly chloroquine-resistant strain Fcm29-Cameroon). Put plainly: Antimalarial activity test (radioactive micromethod of Desjardins). To be noted: Plasmodium falciparum, Erythrocyte, infected human erythrocytes, 48 h, tritiated hypoxanthine incorporation. Here is the method: Antimalarial Activity Test
The P. falciparum strains are cultured in solutions of RPM! […] For each assay, the parasites are incubated with selected concentrations of drugs for 48 h at 37° C. in a humid atmosphere and at 5% CO2. Artemisinin, artesunate and also chloroquine diphosphate are used as reference molecules. The first dilution of the drug is prepared at 1 mg/ml in dimethyl sulphoxide. The range of successive daughter solution dilutions is also prepared in dimethyl sulphoxide. […] These dilutions are then added to the parasites in culture in the microplates. […] The growth of the parasites is measured by incorporation of tritiated hypoxanthine (added 24 h after the beginning of the exposure to the drug) compared with the incorporation in the absence of drug.

The subject of assay [2] is AKT protein phosphorylated on serine 473 (pAKT-S473) in PC3 human prostate carcinoma line. The experiment in a line: Study of pAKT expression in PC3 human prostate carcinoma cells measured by western blotting (Test A). To be noted: PC-3, 1 to 2 hours incubation, approximate absolute IC50, mean of two experiments. The procedure: The inhibitory activity of the molecules on AKT phosphorylation is measured either by western blotting using the technique described below, or by the MSD Multi-spot Biomarker detection technique from Meso Scale Discovery also described below. […] Study of pAKT Expression in Pc3Human Prostate Carcinoma Cells Measured by Western Blotting (Test A): This test is based on measuring the expression of the AKT protein phosphorylated on […]. […] On day 2, the cells are incubated in the presence or absence of the test products for 1 to 2 hours at 37° C. in the presence of 5% CO2. The molecules, diluted in dimethyl sulphoxide (DMSO Sigma #D2650), are added from a 10-times concentrated stock solution, the final percentage of DMSO being 0.1%. […] After this incubation, the cells are lysed for the preparation of the proteins. […] The lysate is centrifuged for 10 min at 6000 rpm. 155 μl of supernatant are recovered. 150 μl are incubated for denaturation for 5 min at 95° C. in the presence of 4× NuPAGE LDS Sample Buffer diluted 4-fold (InVitrogen ref NP0007) and of 10× NuPAGE Sample Reducing Agent diluted 10-fold (InVitrogen ref NP0009). These samples are then frozen at -20° C. […] The gel is then transferred on to an Invitrolon PVDF membrane (Invitrogen #LC2007) permeabilised beforehand for a few seconds in ethanol (Ethanol Fischer Scientific #E/0600DF/15). The transfer is carried out in a Biorad tank at 30 volts overnight or at 60 volts for 3 hours, in the presence of 20× NUPAGE Transfer Buffer diluted 20-fold (InVitrogen ref NP0006). The membrane is then saturated in saturating solution composed of TBS (10× Tris Buffered Saline, Sigma #T5912, diluted 10-fold), 0.1% Tween 20 (Sigma #P5927) and 3% BSA (Bovine Serum Albumin Fraction V, Sigma #A4503) for 6 h after overnight transfer or else for 1 h after transfer for a period of 3 h. […] Two rinses for 5 min in washing solution composed of TBS and 0.1% Tween 20 are carried out before hybridisation of the secondary antibodies. The secondary antibodies are diluted to 1/10000th for the rabbit anti-Mouse IgG HRP antibody ([…] Promega) and to 1/10000th for the goat anti-Rabbit IgG HRP antibody ([…] Promega) in saturating solution, and then shaken for 1 h at ambient temperature. Two rinses for 30 min in washing solution are carried out and then a rinse for 5 min in H2O is carried out in order to eliminate the remaining Tween 20. […] The luminescence is read with the FujiFilm device (Ray Test). The FUJI device measures the total luminescence signal obtained (AU) for each band selected. It then subtracts the background noise (BG) proportional to the size of the band selected (Area), said background noise being calculated from a specific background noise band, with a view to obtaining the specific signal (AU-BG) for each band. The band obtained in the absence of product and in the presence of 0.1% DMSO is considered to be the 100% signal. The software calculates the % specific activity (Ratio) obtained for each band selected as a function of this 100% signal. The percentage inhibition is calculated for each concentration according to the formula (100%-Ratio). Two independent experiments make it possible to calculate the mean of the percentages of inhibition obtained at a given concentration for the products tested only at one concentration. […] Two independent experiments make it possible to calculate the mean of the IC50 values.

The test system of assay [3] is translocation of the LC3 protein in Hela GFP-LC3 cells. Put plainly: Study of the translocation of the LC3 protein in Hela human cells, measured by image analysis cytometry (Test C, autophagy). The following applies: Homo sapiens, HeLa, 2 h, Hela GFP-LC3 cells with LC3 granulations, EBSS + 10 μM hydroxychloroquine, absolute IC50.
For assay [4], the system named is AKT protein phosphorylated on serine 473 (P-AKT-S473) in PC3 human prostate carcinoma line. The experiment in a line: Study of pAKT expression in PC3 human prostate carcinoma cells measured by the MSD Multi-spot Biomarker Detection technique (Test B). The following applies: Homo sapiens, PC-3, P-AKT-S473 in PC3 cells, MSD sandwich immunoassay, 1 to 2 h incubation; absolute IC50, mean of 2 experiments.

SMILES strings stand for the structures.

Broadly, the inhibition is the share of the control response that was lost under treatment. The IC50 is the midpoint of a concentration-inhibition curve. For `O=c1cc(N2CCOCC2)nc2n1CC[C@@H](C(F)(F)F)N2c1ccccc1` [Example 12, (8S)-2-(morpholin-4-yl)-9-phenyl-8-(trifluoromethyl)-6,7,8,9-tetrahydro-4H-pyrimido[1,2-a]pyrimidin-4-one], in assay [1], the inhibition at 1 µM worked out at 59%. In addition, the results for the IC50 in assay [2] and in assay [3] were 6600 nM and 441 nM, respectively.

With `COc1ccc(CCN2c3nc(N4CCOCC4)cc(=O)n3CC[C@H]2C(F)(F)F)cc1` [Example 1, (S)-9-[2-(4-methoxyphenyl)ethyl]-2-morpholin-4-yl-8-trifluoromethyl-6,7,8,9-tetrahydropyrimido[1,2-a]pyrimidin-4-one], the inhibition at 0.1 µM in assay [1] amounted to 79%. For the same compound, in assay [1], the inhibition at 1 µM was found to be 99%. Further, the figures for the 50% inhibitory concentration (IC50) in assay [2] and in assay [3] were 15 nM and 11 nM, respectively.

For `O=c1cc(N2CCOCC2)nc2n1CC[C@@H](C(F)(F)F)N2Cc1ccccc1` [Example 4, (S)-9-benzyl-2-morpholin-4-yl-8-trifluoromethyl-6,7,8,9-tetrahydropyrimido[1,2-a]pyrimidin-4-one], in assay [1], the inhibition at 0.1 µM was found to be 19%. The inhibition at 1 µM in assay [1] is 97%. The values for the concentration for half-maximal inhibition (IC50) in assay [2] and in assay [3] were 265 nM and 569 nM, respectively.

`O=c1cc(N2CCOCC2)nc2n1CC[C@@H](C(F)(F)F)N2c1ccccc1F` [Example 15, (8S)-9-(2-fluorophenyl)-2-(morpholin-4-yl)-8-(trifluoromethyl)-6,7,8,9-tetrahydro-4H-pyrimido[1,2-a]pyrimidin-4-one]: the half-maximal inhibitory concentration (IC50) in assay [4] was 7 nM; in assay [2] it was 2720 nM; in assay [3], over 1000 nM.
